Ten compounds from ChEMBL document CHEMBL1142203, “Antiviral activities of novel 5-phosphono-pent-2-en-1-yl nucleosides and their alkoxyalkyl phosphonoesters” (Antimicrob Agents Chemother, 2007) can be followed below.

Data set [1] concerns Hepatitis B virus. The experiment in a line: Antiviral activity against HBV with lamivudine-resistant polymerase M204I mutant in Huh7 cells after 5 days. Conditions: Huh-7, 120 h. In kind it is functional, organism-based.
Data set [2] has as its system Human alphaherpesvirus 1. The experiment in a line: Antiviral activity against HSV1 in MRC5 cells by DNA reduction assay. Conditions: Human alphaherpesvirus 1, MRC5. It is filed as functional, organism-based.
Data set [3] has as its system Hepatitis B virus. The experiment in a line: Antiviral activity against HBV with lamivudine-resistant polymerase M204V mutant in Huh7 cells after 5 days. It is filed as functional, organism-based. Conditions: Huh-7, 120 h.
Data set [4] has as its system Hepatitis B virus. The experiment in a line: Antiviral activity against HBV with […]-resistant polymerase N236T mutant in Huh7 cells after 5 days. It is filed as functional, organism-based. Conditions: Huh-7, 120 h.
Data set [5] can be described thus: Cytotoxicity against Huh7 cells. It is filed as cell-based, Huh-7. Conditions: human.
The nature of data set [6]: Cytotoxicity against HFF cells by neutral red uptake assay. In kind it is cell-based. To be noted: human.
The subject of data set [7] is Human betaherpesvirus 5. The experiment in a line: Antiviral activity against HCMV AD169 in HFF cells by plaque reduction assay. It is filed as functional, organism-based. To be noted: Human betaherpesvirus 5, AD169, HFF.
Data set [8] relates to Human alphaherpesvirus 3. The experiment in a line: Antiviral activity against VZV Ellen in HFF cell by CPE assay. In kind it is functional, organism-based. Conditions: Human alphaherpesvirus 3, Ellen.
Data set [9] has as its system Hepatitis B virus. The experiment in a line: Antiviral activity against HBV with lamivudine-resistant polymerase L180M mutant in Huh7 cells after 5 days. Conditions: Huh-7, 120 h. In kind it is functional, organism-based.
The test system of data set [10] is Cowpox virus. The experiment in a line: Antiviral activity against Cowpox virus Brighton in HFF cells by plaque reduction assay. In kind it is functional, organism-based.
Data set [11] has as its system Human gammaherpesvirus 4. The experiment in a line: Antiviral activity against EBV in Daudi cells by ELISA. Conditions: human gammaherpesvirus 4, Daudi. In kind it is functional, organism-based.
Data set [12] has as its system Vaccinia virus. The experiment in a line: Antiviral activity against Vaccinia virus Copenhagen in HFF cells by plaque reduction assay. In kind it is functional, organism-based. To be noted: Orthopoxvirus vaccinia.
In data set [13] the test system is Hepatitis B virus. The experiment in a line: Antiviral activity against HBV with lamivudine-resistant polymerase L180M/M204V double mutant in Huh7 cells after 5 days. To be noted: Huh-7, 120 h. In kind it is functional, organism-based.
Data set [14] deals with Hepatitis B virus. The experiment in a line: Antiviral activity against wild type HBV in Huh7 cells after 5 days. To be noted: Huh-7, 120 h. It is filed as functional, organism-based.
Data set [15] in a line: Cytotoxicity against HepG2 2.2.15 cells assessed as inhibition of uptake of neutral red dye after 24 hrs. In kind it is cell-based. Conditions: human.
Data set [16] can be described thus: Selectivity index, ratio of CC50 for HepG2 2.2.15 cells to EC50 for HBV. In kind it is functional.
The test system of data set [17] is Hepatitis B virus. The experiment in a line: Antiviral activity against HBV in HepG2 2.2.15 cells after 24 hrs by DNA reduction assay. In kind it is functional, organism-based. To be noted: HepG2, 24 h.
Data set [18] can be described thus: Cytotoxicity against plated MRC5 cells by neutral red uptake assay. In kind it is cell-based. Conditions: human.
Data set [19] is described as follows: Cytotoxicity against Daudi cells. Conditions: human. In kind it is cell-based.
A short description of data set [20]: Cytotoxicity against MT2 cells after 72 hrs. In kind it is cell-based. Conditions: human.
For data set [21], the system named is Human immunodeficiency virus 1. The experiment in a line: Antiviral activity against HIV1 LAI in MT2 cells assessed as inhibition of p24 antigen production. In kind it is functional, organism-based. To be noted: Human immunodeficiency virus 1, LAI.

Some results are limits rather than exact numbers.

With `CCCCCCCCCCCCCCCCOCCCOP(=O)(O)CC/C=C\Cn1cnc2c(=O)nc(N)[nH]c21`, the 50% effective concentration (EC50) in data set [1] is 13 µM; in [2], 5.8 µM; in data set [3], 16 µM; in data set [4] it was 6.3 µM; in data set [7], 1.8 µM; in data set [8], 12.2 µM. Also, the EC50 is > 100 µM in [9]; 11 µM in [10]; 48 µM in data set [11]; 7.5 µM in data set [12]; > 100 µM in data set [13]; 8.8 µM in [14]. The same compound had a half-maximal effective concentration (EC50) in [17] of 2.4 µM. Further, the CC50 was 929 µM in data set [5] and > 100 µM in data set [6]. Besides, the CC50 at 24 h in [15] was > 1000 µM. Also, the “Ratio CC50/EC50” value in [16] is reported as >417.
Take `Nc1ncnc2c1ncn2C/C=C\CCP(=O)(O)O`: the concentration for a half-maximal effect (EC50) in [2] is > 30 µM; in [7], > 100 µM; in data set [8], > 300 µM; in [10] it was > 100 µM; in [11], > 4 µM; in [12] it was > 100 µM. Also, the concentration for a half-maximal effect (EC50) in [17] was > 30 µM. Further, the CC50 in data set [6] and in data set [18] was > 100 µM throughout. Further, the CC50 at 24 h in [15] is 639 µM.
Regarding `Cc1cn(C/C=C\CCP(=O)(O)O)c(=O)[nH]c1=O`, the 50% effective concentration (EC50) in data set [2] was > 30 µM; in data set [7], > 100 µM; in [8], > 300 µM; in [10] it was > 100 µM; in [12], > 100 µM; in data set [17] it was > 30 µM. In addition, the CC50 in [6] and in data set [18] was > 100 µM each time. Moreover, the half-maximal cytotoxic concentration (CC50) at 24 h in [15] amounted to 620 µM.
As to `CCCCCCCCCCCCCCCCOCCCOP(=O)(O)CC/C=C\Cn1cnc2c(N)ncnc21`, the EC50 is 7.7 µM in data set [1]; 18 µM in data set [2]; 9 µM in data set [3]; 10 µM in data set [4]; 15.7 µM in data set [7]; > 20 µM in [8]. The EC50 in data set [9] was 15 µM; in [10], > 20 µM; in data set [11], 0.1 µM; in data set [12], > 30 µM; in [13], 8.1 µM; in data set [14], 9.2 µM. Moreover, the EC50 in data set [17] amounted to 1.5 µM. Besides, the values for the 50% cytotoxic concentration (CC50) in data set [5], in [6] and in data set [19] were 110 µM, 43 µM and > 100 µM, respectively. The CC50 at 24 h in [15] was 116 µM. Also, the “Ratio CC50/EC50” value in data set [16] is on record as 77.
For the compound `Nc1ccn(C/C=C\CCP(=O)(O)O)c(=O)n1`, the EC50 is > 30 µM in data set [2]; > 100 µM in data set [7]; > 60 µM in data set [8]; > 100 µM in data set [10]; > 100 µM in [12]; > 30 µM in data set [17]. The half-maximal cytotoxic concentration (CC50) in data set [6] and in data set [18] was > 100 µM throughout. The 50% cytotoxic concentration (CC50) at 24 h in data set [15] was determined as 600 µM.
Take `CCCCCCCCCCCCCCCCOCCCOP(=O)(O)CC/C=C\Cn1ccc(=O)[nH]c1=O`: the EC50 in data set [2] is > 30 µM; in [7], > 20 µM; in data set [10], > 100 µM; in [12] it was > 100 µM; in data set [17], > 30 µM. Further, the cytotoxic concentration (CC50) in data set [6] is > 100 µM. Moreover, the cytotoxic concentration (CC50) at 24 h in data set [15] came out at 155 µM.
Turning to `Nc1nc(=O)c2ncn(C/C=C\CCP(=O)(O)O)c2[nH]1`, the concentration for a half-maximal effect (EC50) in data set [2] was > 30 µM; in data set [7] it was 68.4 µM; in data set [8], 7.2 µM; in [10], > 100 µM; in data set [12], > 100 µM; in [17], > 30 µM. The half-maximal cytotoxic concentration (CC50) in [6] and in [18] was > 100 µM throughout. Further, the CC50 at 24 h in data set [15] is 610 µM.
In the case of `CCCCCCCCCCCCCCCCOCCCOP(=O)(O)CC/C=C\Cn1ccc(N)nc1=O`, the concentration giving a half-maximal response (EC50) in [1] is > 100 µM; in data set [2] it was 4.7 µM; in [3] it was > 100 µM; in data set [4], 4 µM; in data set [7] it was 2.9 µM; in [8] it was 3.7 µM. For the same compound, the EC50 in data set [9] was > 100 µM; in [10], > 20 µM; in [21], 2.5 µM; in data set [12], > 20 µM; in data set [13] it was > 100 µM; in [14] it was 3.4 µM. The EC50 in [17] turned out to be 3.9 µM. The CC50 in data set [5] stood at 523 µM; in [6], 56 µM. In addition, the midpoint of cytotoxicity in data set [20], the CC50 at 72 h, lay at 3.3 µM. For the same compound, the CC50 at 24 h in [15] was determined as 621 µM. In data set [16], the “Ratio CC50/EC50” value came out at 159.
Turning to `CCCCCCCCCCCCCCCCOCCCOP(=O)(O)CC/C=C\Cn1cc(C)c(=O)[nH]c1=O`, the EC50 in data set [1] is > 100 µM; in [2] it was 0.9 µM; in [3], > 100 µM; in data set [4], 3.8 µM; in data set [7], 0.66 µM; in data set [8], 3 µM. In addition, the EC50 in data set [9] was > 100 µM; in [10] it was > 20 µM; in data set [21], 1 µM; in [12] it was > 20 µM; in [13] it was > 100 µM; in [14], 3 µM. The EC50 in data set [17] was determined as 2 µM. Further, the figures for the CC50 in data set [5] and in [6] were 120 µM and > 100 µM, respectively. In data set [20], the CC50 at 72 h is 1.3 µM. Also, in data set [15], the cytotoxic concentration (CC50) at 24 h worked out at 122 µM. The “Ratio CC50/EC50” value in [16] came out at 61.
As to `O=c1nc(O)ccn1C/C=C\CCP(=O)(O)O`, the concentration giving a half-maximal response (EC50) was > 30 µM in data set [2]; > 100 µM in [7]; > 300 µM in data set [8]; > 100 µM in [10]; > 100 µM in data set [12]; > 30 µM in data set [17]. Besides, the 50% cytotoxic concentration (CC50) in [6] and in data set [18] was > 100 µM in each case. The half-maximal cytotoxic concentration (CC50) at 24 h in data set [15] was determined as 712 µM.
